The text below walks through data of ChEMBL document CHEMBL4152208, “Synthesis and structure-activity relationships of quinolinone and quinoline-based P2X7 receptor antagonists and their anti-sphere formation activities in glioblastoma cells” (Eur J Med Chem, 2018).

Calls of active or inactive are those of the source. The rule behind the calls is not given here.

Assay [1] concerns the target T1, P2X purinoceptor 7 (Homo sapiens) (UniProt Q99572).
T1 sequence (whole entry): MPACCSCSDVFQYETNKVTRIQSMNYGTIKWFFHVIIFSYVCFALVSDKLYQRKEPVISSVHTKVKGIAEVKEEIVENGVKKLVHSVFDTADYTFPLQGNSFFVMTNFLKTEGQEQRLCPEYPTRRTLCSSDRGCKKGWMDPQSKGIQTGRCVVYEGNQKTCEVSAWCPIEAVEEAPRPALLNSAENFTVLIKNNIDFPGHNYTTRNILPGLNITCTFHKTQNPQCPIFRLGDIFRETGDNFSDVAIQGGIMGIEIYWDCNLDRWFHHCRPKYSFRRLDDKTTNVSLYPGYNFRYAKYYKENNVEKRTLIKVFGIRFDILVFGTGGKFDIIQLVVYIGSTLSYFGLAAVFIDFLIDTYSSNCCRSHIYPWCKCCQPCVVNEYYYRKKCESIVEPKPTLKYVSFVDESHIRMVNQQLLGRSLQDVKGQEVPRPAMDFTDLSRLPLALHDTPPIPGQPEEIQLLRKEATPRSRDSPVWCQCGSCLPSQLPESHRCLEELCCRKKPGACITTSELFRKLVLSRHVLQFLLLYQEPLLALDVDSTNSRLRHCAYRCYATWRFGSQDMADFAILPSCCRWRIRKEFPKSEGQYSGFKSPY
Description: Antagonist activity at human P2X7 receptor expressed in HEK293 cells assessed as inhibition of BzATP-induced EtBr uptake at 10 uM after 2 hrs by fluorescence assay relative to control. In kind it is cell-based.

The target in assay [2] is T1, P2X purinoceptor 7 (Homo sapiens). Description: Antagonist activity at human P2X7 receptor expressed in HEK293 cells assessed as inhibition of BzATP-induced EtBr uptake at 1 uM after 2 hrs by fluorescence assay relative to control. The format is cell-based.

What is called inhibition is the drop in the measured response relative to a control, in per cent. In the case of `COc1ccc(CCNC(=O)c2cc3c(NC(=O)CCc4ccccc4)cccc3n(Cc3ccc(OC)cc3)c2=O)cc1`, the inhibition in assay [1] was 7%.
In the case of `CCCC(=O)Nc1cccc2c1cc(C(=O)NCCc1ccccc1)c(=O)n2Cc1ccc(OC)cc1`, in assay [1], the inhibition entry is “inactive”.
As to `COc1ccc(Cn2c(=O)c(C(=O)NCCc3ccc(Cl)cc3)cc3c(NC(=O)Cc4ccccc4)cccc32)cc1`, the inhibition entry in assay [1] was “inactive”.
`COc1ccc(Cn2c(=O)c(C(=O)NCCc3ccc(C)cc3)cc3c(NC(=O)COc4ccc(Cl)cc4)cccc32)cc1`: the inhibition entry in assay [1] was “inactive”.
For the compound `COC(=O)c1cc2c(NC(=O)CCC3CCCCC3)cccc2n(Cc2ccc(OC)cc2)c1=O`, the results for the inhibition in assay [1] and in assay [2] were 57% and 20%, respectively.
In the same order, the values of `COC(=O)c1cc2c(NC(=O)C34CC5CC(CC(C5)C3)C4)cccc2n(Cc2ccc(OC(F)(F)F)cc2)c1=O` are 68% and 48%.
`COc1ccc(Cn2c(=O)c(C(=O)NCCc3ccccc3)cc3c(NC(=O)CCc4ccccc4)cccc32)cc1`: the inhibition entry in assay [1] was “inactive”.
`COc1ccc(CC(=O)Nc2cccc3c2cc(C(=O)NCCc2ccccc2)c(=O)n3Cc2ccc(OC)cc2)cc1`: in assay [1], the inhibition turned out to be 8%.
`COc1ccc(Cn2c(=O)c(C(=O)NCCc3ccc(C)cc3)cc3c(NC(=O)CCC4CCCC4)cccc32)cc1`: the inhibition entry in assay [1] is “inactive”.
`COc1ccc(Cn2c(=O)c(C(=O)NCCc3ccc(Cl)cc3)cc3c(NC(=O)COc4cccc(Cl)c4)cccc32)cc1`: the inhibition result in assay [1] was “inactive”.
In the case of `COC(=O)c1cc2c(NC(=O)c3ccccc3)cccc2n(Cc2ccc(OC)cc2)c1=O`, the inhibition result in assay [1] was “inactive”.
With `COc1ccc(Cn2c(=O)c(C(=O)N(C)C)cc3c(NC(=O)C45CC6CC(CC(C6)C4)C5)cccc32)cc1`, the inhibition worked out at 54% in assay [1] and 14% in assay [2].
`COC(=O)c1cc2c(NC(=O)Cc3ccccc3)cccc2n(Cc2ccc(OC)cc2)c1=O`: the inhibition in assay [1] is 43%; in assay [2], 24%.
`COc1ccc(Cn2c(=O)c(C(=O)O)cc3c(N)cccc32)cc1`: the inhibition result in assay [1] is “inactive”.
Take `CCc1ccc(CCNC(=O)c2cc3c(NC(=O)COc4ccc(Cl)cc4)cccc3n(Cc3ccc(OC)cc3)c2=O)cc1`: the inhibition result in assay [1] is “inactive”.
For `COc1ccc(CC(=O)Nc2cccc3c2cc(C(=O)NCCc2ccc(C)cc2)c(=O)n3Cc2ccc(OC)cc2)cc1`, the inhibition result in assay [1] is “inactive”.
As to `O=C(CC12CC3CC(CC(C3)C1)C2)Nc1cccc2nc(-c3ccccc3O)ccc12`, the inhibition in assay [1] amounted to 69%; in assay [2], 41%.
Consider `COc1ccc(Cn2c(=O)c(C(=O)NCCc3ccc(C)cc3)cc3c(N)cccc32)cc1`, for which the inhibition in assay [1] was found to be 4%.
Consider `CCCC(=O)Nc1cccc2c1cc(C(=O)NCCc1ccc(OC)cc1)c(=O)n2Cc1ccc(OC)cc1`, for which the inhibition result in assay [1] was “inactive”.
Turning to `CNC(=O)c1cc2c(NC(=O)C34CC5CC(CC(C5)C3)C4)cccc2n(Cc2ccc(OC)cc2)c1=O`, the values for the inhibition in assay [1] and in assay [2] were 42% and 6%, respectively.
Consider `COC(=O)c1cc2c(NC(=O)C34CC5CC(CC(C5)C3)C4)cccc2nc1Cl`, for which the inhibition in assay [1] stood at 21%. In assay [2], the inhibition entry is “inactive”.
On to `COC(=O)c1cc2c(N)cccc2n(Cc2ccc(OC)cc2)c1=O`, for which, in assay [1], the inhibition entry is “inactive”.
In the case of `COc1ccc(Cn2c(=O)c(C(=O)O)cc3c(NC(=O)C45CC6CC(CC(C6)C4)C5)cccc32)cc1`, the inhibition is 41% in assay [1] and 2% in assay [2].
`COc1ccc(Cn2c(=O)c(C(=O)NCCc3ccc(C)cc3)cc3c(NC(=O)CCc4ccccc4)cccc32)cc1`: the inhibition entry in assay [1] is “inactive”.
As to `O=C(CC12CC3CC(CC(C3)C1)C2)Nc1cccc2nc(-c3cccc(O)c3)ccc12`, the figures for the inhibition in assay [1] and in assay [2] were 66% and 36%, respectively.
For `COc1ccc(Cn2c(=O)c(C(=O)NCCc3ccc(C)cc3)cc3c(NC(=O)COc4cccc(Cl)c4)cccc32)cc1`, the inhibition result in assay [1] was “inactive”.
With `COc1ccc(Cn2c(=O)c(C(=O)NCCc3ccc(O)c(OC)c3)cc3c(N)cccc32)cc1`, the inhibition in assay [1] was 5%.
For the compound `COC(=O)c1cc2c(NC(=O)CC34CC5CC(CC(C5)C3)C4)cccc2nc1Cl`, the inhibition in assay [1] came to 43%; in assay [2] it was 27%.
Take `COc1ccc(Cn2c(=O)c(C(=O)NCCCc3ccccc3)cc3c(NC(=O)Cc4ccccc4)cccc32)cc1`: the inhibition entry in assay [1] is “inactive”.
Consider `CCc1ccc(CCNC(=O)c2cc3c(N)cccc3n(Cc3ccc(OC)cc3)c2=O)cc1`, for which the inhibition entry in assay [1] is “inactive”.
Turning to `COC(=O)c1cc2c(NC(=O)C34CC5CC(CC(C5)C3)C4)cccc2n(Cc2ccc(C)cc2)c1=O`, the inhibition worked out at 45% in assay [1] and 30% in assay [2].
For `COC(=O)c1cc2c(NC(=O)C34CC5CC(CC(C5)C3)C4)cccc2n(Cc2cccc(OC)c2)c1=O`, the inhibition in assay [1] is 55%; in assay [2] it was 35%.
As to `COC(=O)c1cc2c(NC(=O)CCC3CCCC3)cccc2n(Cc2ccc(OC)cc2)c1=O`, the figures for the inhibition in assay [1] and in assay [2] were 45% and 15%, respectively.
On to `COc1ccc(Cn2c(=O)c(C(=O)NCCCc3ccccc3)cc3c(NC(=O)CCc4ccccc4)cccc32)cc1`, for which the inhibition entry in assay [1] is “inactive”.
For the compound `COC(=O)c1cc2c(NC(=O)C34CC5CC(CC(C5)C3)C4)cccc2n(Cc2ccc(C#N)cc2)c1=O`, the inhibition entry in assay [1] is “inactive”.
For `CCc1ccc(Cn2c(=O)c(C(=O)OC)cc3c(NC(=O)C45CC6CC(CC(C6)C4)C5)cccc32)cc1`, the inhibition in assay [1] worked out at 38%; in assay [2] it was 28%.
In the case of `COc1ccc(Cn2c(=O)c(C(=O)NCCc3ccc4c(c3)OCO4)cc3c(NC(=O)Cc4ccc(Cl)cc4)cccc32)cc1`, in assay [1], the inhibition result is “inactive”.
Still for that read-out and setting: the figure for `COc1ccc(Cn2c(=O)c(C(=O)NCCc3ccc(C)cc3)cc3c(NC(=O)Cc4ccccc4)cccc32)cc1` is 13%.
Take `COc1ccc(Cn2c(=O)ccc3c(NC(=O)C45CC6CC(CC(C6)C4)C5)cccc32)cc1`: the inhibition in assay [1] came to 43%; in assay [2] it was 29%.
Take `COc1ccc(Cn2c(=O)c(C(=O)NCCc3ccc4c(c3)OCO4)cc3c(N)cccc32)cc1`: the inhibition result in assay [1] was “inactive”.
Turning to `COC(=O)c1cc2c(NC(=O)C34CC5CC(CC(C5)C3)C4)cccc2n(Cc2ccccc2)c1=O`, the inhibition result in assay [1] was “inactive”.
On to `COC(=O)c1cc2c(NC(=O)CCc3ccccc3)cccc2n(Cc2ccc(OC)cc2)c1=O`, for which the results for the inhibition in assay [1] and in assay [2] were 56% and 36%, respectively.
Take `COc1ccc(Cn2c(=O)c(C(=O)NCCc3ccccc3)cc3c(N)cccc32)cc1`: in assay [1], the inhibition result is “inactive”.
On to `COc1ccc(Cn2c(=O)c(C(=O)NCCc3ccc(Cl)cc3)cc3c(N)cccc32)cc1`, for which, in assay [1], the inhibition entry was “inactive”.
Still for that read-out and setting: the entry for `COc1ccc(Cn2c(=O)c(C(=O)NCCCc3ccccc3)cc3c(N)cccc32)cc1` is “inactive”; for `COc1ccc(CCNC(=O)c2cc3c(NC(=O)COc4ccc(Cl)cc4)cccc3n(Cc3ccc(OC)cc3)c2=O)cc1` it is “inactive”.
Consider `O=C(Nc1cccc2nc(Cl)ccc12)C12CC3CC(CC(C3)C1)C2`, for which the results for the inhibition in assay [1] and in assay [2] were 51% and 11%, respectively.
For the compound `COc1ccc(Cn2c(=O)c(C(=O)NCCCc3ccccc3)cc3c(NC(=O)Cc4ccc(Cl)cc4)cccc32)cc1`, the inhibition entry in assay [1] was “inactive”.
